Assay results reported in US20030124151A1, “Pamidronate solution” (Mayne Pharma Pty Ltd., priority 2000, published 2003).

Key:
[1] = cited from earlier work
[2] = pH of one percent solution in distilled water; format: physicochemical

In the case of `NCCC(O)(P(=O)(O)O)P(=O)(O)O` [Pamidronic acid, (3 amino-1-hydroxypropylidene) bisphosphonic acid], the Solubility in water [1] is listed as “practically insoluble”.
With `NCCC(O)(P(=O)(O)O)P(=O)(O)O` [pamidronate disodium] the pH of solution [2] was “approximately 8.3”.
